Experimental data as given in US20230203554A1, “PROCESS FOR REDUCING UNWANTED CULTURE BYPRODUCTS IN CELL CULTURE MEDIUM” (SAMSUNG BIOEPIS CO., LTD., priority 2016, published 2023).

What was measured:
[1] = system: Chinese hamster ovary (CHO) cells; settings: 8 mM ammonia; cited from earlier work
CHO cells [2] = assay: Cell viability, Trypan blue exclusion method (Cedex HiRes), Examples 3 and 4; assay type: cell-based, Chinese hamster; settings: for cell viability: 14 days after the culture
Description: (§1) Cells were prepared using the same method as that used in Example 1, and a glutamine-free and 2×HT-containing medium was added to the prepared cells. 4 mM of uridine (catalog No.: U3003, Sigma) or 8 mM of galactose (Catalog No.: G0750, Sigma) was added to the medium. The cells were cultured at 37° C. and 5% CO2, and the medium was replaced with a fresh medium every two days. Cells cultured in a glutamine-free medium were used as a negative control.
(§2) After about 14 days, viable cell density and cell viability were measured using a Cedex HiRes analyzer (Model No.: 05650216001, Roche) through a scanner-based imaging method and a Trypan blue exclusion method. The viable cell density (CHO cells/ml) of cells cultured in the presence of uridine and in the presence of galactose is illustrated in FIGS. 5A and 5B, respectively. In addition, the cell viability (%) of cells cultured in the presence of uridine and in the presence of galactose is illustrated in FIGS. 6A and 6B, respectively.
as §1, with “1” for “4”, “magnesium” for “uridine (catalog No.: U3003, Sigma) or 8 mM of galactose”, “M4880,” for “G0750,”
After about 14 days, viable cell density and cell viability were measured using a Cedex HiRes analyzer (Model No.: 05650216001, Roche) through a scanner-based imaging method and a Trypan blue exclusion method, respectively. The viable cell density (CHO cells/ml) and cell viability of the cells cultured in the presence of magnesium are illustrated in FIGS. 7 and 8, respectively.

CHO cells [3] = assay: Viable cell density, scanner-based imaging (Cedex HiRes), Examples 3 and 4; set-up: species or system Chinese hamster; settings: 8 mM galactose added to glutamine-free 2×HT medium; FIG. 5B
Description: as §1, §2
Cells were prepared using the same method as that used in Example 1, and a glutamine-free and 2×HT-containing medium was added to the prepared cells. […]
After about 14 days, viable cell density and cell viability were measured using a Cedex HiRes analyzer (Model No.: 05650216001, Roche) through a scanner-based imaging method and a Trypan blue exclusion method, respectively. […]

N [ammonia]
inhibition of cell growth [1]: 50%

O=C[C@H](O)[C@@H](O)[C@@H](O)[C@H](O)CO [galactose, reference compound]
cell viability (printed: viable cell density), versus medium without galactose (CHO cells [2]; 8 mM galactose added to glutamine-free 2×HT medium, FIG. 6B): no significant difference
viable cell density, versus medium without galactose (CHO cells [3]): no significant difference

[Mg+2] [magnesium]
cell viability (CHO cells [2]; 1 mM magnesium added to glutamine-free 2×HT medium): 91.5%

O=c1ccn([C@@H]2O[C@H](CO)[C@@H](O)[C@H]2O)c(=O)[nH]1 [uridine]
cell viability (CHO cells [2]; 4 mM uridine added to glutamine-free 2×HT medium): 94.6%
